Data as given in publication PMC9897788, “Design, synthesis and cytotoxic evaluation of novel bis-thiazole derivatives as preferential Pim1 kinase inhibitors with in vivo and in silico study” (Journal of Enzyme Inhibition and Medicinal Chemistry, 2023).
pIC50: −log10 of the molar value. Entries after “also recorded” stand apart in the source; their conditions may differ.

What was measured:
Pim1 kinase = biological target: T1, Pim1 kinase (Homo sapiens, UniProt P11309); assay: In vitro Pim1 kinase inhibition assay (ADP-Glo); assay type: biochemical; conditions: n = 3
T1 construct: purchased Promega Corporation, Madison, WI
T1 sequence (P11309 whole entry): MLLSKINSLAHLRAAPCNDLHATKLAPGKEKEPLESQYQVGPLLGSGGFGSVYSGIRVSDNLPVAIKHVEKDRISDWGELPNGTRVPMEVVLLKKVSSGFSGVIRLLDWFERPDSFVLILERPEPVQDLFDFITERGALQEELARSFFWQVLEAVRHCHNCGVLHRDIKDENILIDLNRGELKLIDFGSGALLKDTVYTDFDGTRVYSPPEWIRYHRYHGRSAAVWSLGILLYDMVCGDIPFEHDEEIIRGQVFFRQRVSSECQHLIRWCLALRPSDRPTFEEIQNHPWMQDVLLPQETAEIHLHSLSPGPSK
Method: ADP-Glo^TM kinase assay kit was used to evaluate Pim1 kinase inhibition purchased from Promega Corporation, Madison, WI. At each of the kit low-volume well, the tested compounds were dissolved in DMSO at each of the tested concentration range and 1 µL was withdrawn and mixed with 2 µL Pim1 kinase and 2 µL of substrate/ATP mix then incubated at room temperature for 60 min. 5 µL of ADP-Glo reagent was added and incubated for another 40 min at room temperature. Finally 10 µL of kinase detection reagents was added and incubated for 30 min and the luminescence was recorded. Pim1 kinase buffer was prepared by mixing 40 mM Tris at pH 7.5, 20 mM MgCl2, 0.1 mg/mL BSA and 50 µM DTT.

Ehrlich solid carcinoma = assay: In vivo cytotoxicity study, Ehrlich solid carcinoma model; design: species or system male Swiss albino mice; conditions: i.p. once weekly for 3 weeks; for Histopathological examination of Ehrlich solid tumour (H&E): mice; for TNF-α level (ELISA) / malondialdehyde (MDA) level (ELISA): serum, Ehrlich solid tumour mice
Method: The National Cancer Institute (Cairo, Egypt) provided the 48 male Swiss albino mice utilised in this study, which ranged in weight from 25 to 30 g. Prior to the experiment, mice were given a week to settle into their new environment. A constant 23 °C temperature, 60% humidity, and a 12/12 light/dark cycle were maintained in stainless steel cages. Each cage housed five mice with a plenty of nourishing food and refreshing water were served. This in vivo study was approved from the ethical committee of the Azhar University, Faculty of Medicine, Egypt.
A female mouse with an 8-day-old ascetic tumour was obtained from the National Cancer Institute on the day of induction, and Ehrlich ascites carcinoma (EAC) cells were isolated from the ascetic fluid of the animal (day 0). Then, regular saline was used to dilute the ascetic fluid (1:10). Each mouse received a subcutaneous injection of 0.2 ml of ascetic fluid containing 2.5 × 10^6 EAC cells in the right thigh of the hind limb to induce Ehrlich solid-phase cancer.
On day 11 following ESC inoculation, tumour formation was observed as a solid mass expanding in the right thigh of each animal. The mice were then randomly divided into four groups (n = 6) • Group (1) acted as the […] control group and mice received an i.p. DMSO (2 mg/kg/once weekly) for 3 weeks. • Group (2) (Doxorubicin Group) mice received an i.p. dose of doxorubicin (2 mg/kg/once weekly) for 3 weeks. • Group (3) mice were given an i.p. dose of 8b compound (1 mg/kg/once weekly) for 3 weeks, • Group (4) mice were given an i.p. dose of 3b compound (1.4 mg/kg/once weekly) for 3 weeks.
Two days after the last dose of therapy, blood was drawn from the mice’s orbital canthus, and serum was separated and stored at −80 °C for upcoming biochemical investigations. Following the cervical dislocation method of euthanasia, tumour samples from each mouse were collected and preserved in neutral buffered formalin at a 10% concentration for immunohistochemistry and histopathology studies. Histological preparations were performed according to the reported method. Slices of Ehrlich tumour were cut to a thickness of 3–4 mm before being fixed in 10% neutral buffered formalin (10% NBF), dehydrated through a series of ethanol solutions, cleaned in xylene, and finally embedded in paraffin. To examine the overall tissue architecture, sections ([…]) thick were cut from paraffin blocks using a microtome and stained with haematoxylin and eosin. We used a Leica microscope (CH9435 Hee56rbrugg) to look at H&E-stained tissue sections (Leica Microsystems, Switzerland).
The avidin–biotin–peroxidase complex (ABC) method was used to do immunohistochemistry on paraffin sections that were put on positively charged slides. Rabbit Anti-VEGF Receptor 2 Polyclonal Antibody (Elabscience Cat# E-AB-63481, Dil.: 1:100) and Rabbit Monoclonal anti-caspase-3 antibody, active (cleaved) form (Sigma Aldrich Catalog # AB3623)[41], were utilised during this IHC assessment. Each group’s sections were treated with the previously specified antibodies, after which the ABC technique reagents (Vectastain ABC-HRP kit, Vector labs) were applied. To locate the antigen–antibody combination, marker expression was stained with diaminobenzidine (DAB, manufactured by Sigma) and labelled with peroxidase. In order to conduct negative controls, non-immune serum was substituted for the primary or secondary antibodies. IHC-stained sections were assessed using a Leica (CH9435 Hee56sbrugg) microscope (Leica Microsystems, Switzerland).
Using one-way analysis of variance (ANOVA) followed by Tukey’s post-hoc test, the difference between experimental groups was analysed. All data are presented as mean ± standard deviation (SD). All comparisons were judged statistically significant when the p values ≤ 0.05. ImageJ (NIH Image J system, Bethesda, MD) was used for the analysis of immunohistochemistry photos.

Pim2 kinase = Pim2 kinase (Homo sapiens, UniProt Q9P1W9); assay: In vitro Pim2 kinase inhibition assay (ADP-Glo); assay type: biochemical; conditions: n = 3
Pim2 kinase, sequence (Q9P1W9 whole entry): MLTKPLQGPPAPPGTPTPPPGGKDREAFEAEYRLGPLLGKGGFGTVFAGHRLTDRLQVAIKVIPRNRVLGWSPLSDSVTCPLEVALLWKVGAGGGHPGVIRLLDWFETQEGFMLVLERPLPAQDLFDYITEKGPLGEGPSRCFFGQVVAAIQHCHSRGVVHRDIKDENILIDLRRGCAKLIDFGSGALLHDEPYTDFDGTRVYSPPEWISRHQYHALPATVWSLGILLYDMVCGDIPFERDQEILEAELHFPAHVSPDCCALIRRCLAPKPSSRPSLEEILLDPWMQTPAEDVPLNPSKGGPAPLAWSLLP

[1] = test system: Breast MCF10A normal cell line; assay: Normal cell line cytotoxicity using MCF10a (MTT); assay type: cell-based, human; conditions: 48 h; for pIC50: Homo sapiens, MCF-10A; for Selectivity Index: MCF10A normal versus T47D cancer cells
Method: In vitro toxicology assay kit (MTT based) stock no. TOX-1 7H258 was purchased from SIGMA (St. Louis, MO). About 3 ml of the medium with the normal cell lines in log phase were added in multiwall plate without phenol red and serum. A volume of reconstituted MTT (#M-5655) equivalent to 10% of the culture medium volume was added then incubated for 2 h. The resulted fomazan crystals were dissolved with occasional shaking by equivalent volume of MTT solubilising solution (#M-8910). The final solution absorbance was measured spectrophotometry at wavelength 570 nm. Blank experiment was performed using medium only without cells.

[2] = Calculation of the lethal dose 50 (LD50), fixed-dose approach; conditions: male, Swiss albino, mouse, in vivo, ip, mice, single dose
Method: The LD50 of compounds 3b and 8b were determined using a fixed-dose approach; 12 male Swiss albino mice were divided into four groups (three mice per group) to calculate the LD50. […]. By giving these concentrations once to the animals and monitoring the signs of poisoning and deaths within 24 h, the lethal dose was identified. The animals were monitored continuously for the first two hours and then every four hours after that. After 24 h, all of animal deaths and survival appeared. […]. […] The dose used in the experiment was 1/10 from the LD50.

[3] = Ehrlich solid tumour tissue, 8b 1 mg/kg, 3b 1.4 mg/kg, doxorubicin 2 mg/kg
[4] = 8b 1 mg/kg, 3b 1.4 mg/kg, doxorubicin 2 mg/kg

SMILES	pIC50 (Pim1 kinase)	VEGF expression by immunohistochemistry (Ehrlich solid carcinoma; [3])	caspase-3 expression by immunohistochemistry (Ehrlich solid carcinoma; [3])	Histopathological examination of Ehrlich solid tumour (H&E) (Ehrlich solid carcinoma; [4])	TNF-α level (ELISA) (Ehrlich solid carcinoma)	malondialdehyde (MDA) level (ELISA) (Ehrlich solid carcinoma)	pIC50 (Pim2 kinase)	pIC50 [1]	Selectivity Index [1]	LD50 at 24 h [2] [mg/kg]
c1ccc(-c2csc(Nc3cccc(Nc4nc(-c5ccccc5)cs4)c3)n2)cc1 [6a, N^1,N^3-bis(4-phenylthiazol-2-yl)benzene-1,3-diamine]	5.69	–	–	–	–	–	–	–	–	–
Fc1ccc(-c2cs/c(=N\c3ccccc3)n2-c2cccc(-n3c(-c4ccc(F)cc4)cs/c3=N\c3ccccc3)c2)cc1 [8b, N,N’-(3,3’-(1,3-phenylene)bis(4–(4-fluorophenyl)thiazole-3(3H)-yl-2(3H)-ylidene))dianiline]	6.62	low expression of VEGF; also recorded: no appreciable VEGF immunoreactivity; also recorded: down-regulation of VEGF	highest significant increment in caspase-3 expression; also recorded: significant positive expression of caspase-3; also recorded: up-regulation of caspase-3	minimal infiltration of neoplastic cells and a significant reduction in their quantity; also recorded: inhibited the growth of Ehrlich solid tumours in mice	no statistical significant difference between DOX and 8b; also recorded: down-regulation of VEGF and TNF α	elevation of malondialdehyde levels	4.98	4.27	5.44	10
CC(=O)c1sc(Nc2cccc(Nc3nc(C)c(C(C)=O)s3)c2)nc1C [3b, 1,1’-(2,2’-(1,3-Phenylenebis(azanediyl))bis(4-methylthiazole-5,2-diyl))diethanone]	6.49	moderate to low expression of VEGF; also recorded: moderate VEGF positivity; also recorded: down-regulation of VEGF	–	substantial number of aggregated neoplastic cells with their typical structure were surrounded by small patches of necrotic muscle tissue; also recorded: aggregates of neoplastic cells with their typical structure that surrounded by small patches of necrotic muscle tissue	no statistical difference was detected between compounds 8b and 3b; also recorded: down-regulation of VEGF and TNF α	did not significantly vary from the untreated control group	5.22	3.98	18.25	14
Fc1ccc(-c2csc(Nc3cccc(Nc4nc(-c5ccc(F)cc5)cs4)c3)n2)cc1 [6b, N^1,N^3-bis(4–(4-fluorophenyl)thiazol-2-yl)benzene-1,3-diamine]	5.53	–	–	–	–	–	–	–	–	–
